The values below come from ChEMBL document CHEMBL1150107, “Isolation and in vitro antiplasmodial activities of alkaloids from Teclea trichocarpa: in vivo antimalarial activity and X-ray crystal structure of normelicopicine” (J Nat Prod, 2002).

The term IC50 denotes the concentration at which inhibition is half-maximal.

Series [1] has as its system Plasmodium falciparum. In words: Antiplasmodial activity against chloroquine-sensitive Plasmodium falciparum HB3 after 48 hrs by LDH reporter activity. It counts as functional, organism-based. The note with it: HB3, 48 h.
The test system of series [2] is Plasmodium falciparum. Nature of the series: Antiplasmodial activity against chloroquine-resistant Plasmodium falciparum K1 after 48 hrs by LDH activity. The class given is functional, organism-based. The note with it: K1, 48 h.
Series [3] has as its system Plasmodium berghei. Nature of the series: Antimalarial activity as reduced parasitaemia at day 5 against Plasmodium berghei ANKA infected in BALB/c mice (Mus musculus) at 10 mg/kg/day intraperitoneal dose over 4 days. It counts as functional. Also on record: scale not given: the % may be the effect or the level left.
Series [4] can be described thus: Selectivity index, ratio of IC50 for human KB cells to IC50 for chloroquine-resistant Plasmodium falciparum K1. It counts as toxicity, cell-based. The note with it: read-out: Ratio IC50.
Series [5] deals with Plasmodium berghei. Nature of the series: Antimalarial activity as reduced parasitaemia at day 5 against Plasmodium berghei ANKA infected BALB/c mice (Mus musculus) at 25 mg/kg/day intraperitoneal dose over 4 days. The class given is functional. Also on record: scale not given: the % may be the effect or the level left.
A short description of series [6]: Selectivity index, ratio of IC50 for human KB cells to IC50 for chloroquine-sensitive Plasmodium falciparum HB3. The note with it: read-out: Ratio IC50. It counts as toxicity, cell-based.
In series [7] the test system is KB. In words: Cytotoxicity against human KB cells by alamar blue assay. The class given is cell-based.

Molecules are shown by their SMILES.

As for `COc1ccc2c(=O)c3c(OC)c4c(cc3n(C)c2c1OC)OCO4`, the half-inhibitory concentration (IC50) is 32.3 µM in series [1] and 56.9 µM in series [2].
On the same counts, the results for `COc1cc2c(c(O)c1OC)c(=O)c1ccccc1n2C` [ARBORININE] are 3.85 µM and 9.34 µM.
Consider `CCN(CC)CCCC(C)Nc1ccnc2cc(Cl)ccc12.O=P(O)(O)O.O=P(O)(O)O` (stereo not drawn) [CHLOROQUINE PHOSPHATE], for which the Activity in series [3] is on record as 100%.
As to `COc1c(OC)c(OC)c2c(c1OC)c(=O)c1ccccc1n2C` [MELICOPICINE], the IC50 in series [1] and in series [2] was greater than 100 µM each time.
`COc1c(OC)c(OC)c2c(c1O)c(=O)c1ccccc1n2C` [NORMELICOPICINE]: the values for the IC50 in series [1], in series [2] and in series [7] were 8.25 µM, 14.7 µM and greater than 328 µM, respectively. Moreover, the figures for the selectivity ratio in series [4] and in series [6] were 40 and 22, respectively. This molecule displayed an Activity in series [5] of 32.1%.
`COc1cc([C@@H]2c3cc4c(cc3[C@H](O)[C@H]3COC(=O)[C@H]23)OCO4)cc(OC)c1OC` [PODOFILOX] registered an IC50 in series [7] of 0.0048 µM.
Turning to `COc1ccc2c(OC)c3ccoc3nc2c1OC` [SKIMMIANINE], the IC50 in series [1] came out at 47.5 µM; in series [2], 59 µM.
The corresponding values for `COc1c2c(cc3c1c(=O)c1cccc(OC)c1n3C)OCO2` [TECLEANTHINE] are 23.2 µM and 53 µM.
